In patent publication US20070248646A1, “Use of azurocidin inhibitors in prevention and treatment of ocular vascular leakage” (priority 2006, published 2007):

Columns and labels:
[1] = test system: choroidal neovascular leakage; experiment: Laser-induced CNV leakage by fluorescein angiography (model of AMD); type: in vivo, mice; settings: 50,000KIU/day, i.p.
From the text: Laser-induced CNV is a VEGF-dependent model for exudative changes that occur in AMD. In this model, disruption of an animal's Bruch's membrane by laser results in formation of CNV lesions. In these lesions, neovascular capillaries originate within the choroid and extend through the disrupted Bruch's membrane into the outer nuclear layer of the retina. The formation of these leaky capillaries is mainly attributed to changes in the level of angiogenic growth factors such as VEGF.
To perform the procedure, the pupils were dilated with 1-2 drops of 1% tropicamide. Subsequently, 4-6 photocoagulation lesions were delivered to each eye, using a Coherent argon laser (532 nm wavelength, 50 μm spot size, 0.1 s duration, 120-160 mW; model 920; Coherent, Palo Alto, Calif.) between the retinal vessels in a peripapillary distribution in each fundus, using a slit lamp delivery system and a cover glass as a contact lens. The genesis of a bubble at the time of laser treatment confirmed the rupture of the Bruch's membrane. […] Images were captured on a computer (using the IMAGEnet for Windows software, Topcon, Paramus, N.J.). Two masked evaluators performed the grading of the retinal images. A choroidal neovascular membrane is considered to be present if there was early hyperfluorescence followed by later leakage at the site where the laser injury is induced. […]

[2] = test system: retinal vascular permeability; experiment: Qualitative evaluation of retinal vascular permeability with 20-kDa FITC conjugated dextran; type: in vivo, Brown Norway rats; settings: flat-mount retinas, VEGF-injected eyes with or without aprotinin
Protocol: Retinal vascular permeability was documented in a histological manner by intravenous injection of 20-kDa FITC conjugated dextran (50 mg/Kg, Sigma Aldrich). Rats were sacrificed 30 minutes later with intracardiac perfusion of 4% paraformaldehyde to fix the dextran conjugate in the tissues. The retinas were carefully dissected and flat mounted in anti-fading medium (Vector Laboratories). Flat-mount retinas were examined by fluorescent microscopy. Digital color enhancement (green) was equally applied to all images for improved visualization of fluorescence.

[3] = test system: retinal leukostasis in EIU; experiment: Retinal leukostasis in Endotoxin-Induced-Uveitis (ConA staining); type: in vivo, Lewis rats; settings: 24 hours post EIU induction; aprotinin 50,000KIU at 0, 8, 16 hours; EIU 106.6±6.5, normal 17±1.2; n=6
Protocol: EIU was induced in Lewis rats via footpad injection of 100 μl (1 mg/ml) lipopolysaccharide (LPS). Control animals received an equal volume of saline. The experiments were conducted 24 hours after LPS injection. At this time point, several experimental parameters were assessed.
To block AZ, animals received 5 ml of aprotinin (Trasylol®; 50,000KIU). The first injection was given at the same time as the footpad injection, followed by a second injection 8 hours later and a third injection 16 hours later. The control animals received and equal amounts of vehicle control. LPS was purchased in lyophilized form from Sigma (#L6511).
Under deep anesthesia, a rat's chest cavity was opened, and its left ventricle was cannulated to allow perfusion (Ishida (2003) supra). The rat's right atrium was opened to achieve outflow. […] The eyes were enucleated, and the retinas were dissected and flatmounted in a water-based fluorescence anti-fading medium (Fluoromount; Southern Biotechnology, Birmingham, Ala.) and imaged by fluorescence microscopy (Leica, FITC filter). […] Leukocytes in arteries, veins, and capillaries of each retinal tissue were counted, and the total number of adherent leukocytes per retina was calculated. […]

[4] = test system: retinal vascular leakage in diabetic retinopathy; experiment: Retinal vascular leakage in streptozotocin-induced diabetic retinopathy; type: in vivo, Long-Evans rats; settings: two weeks after streptozotocin-induced diabetes; aprotinin 50,000 KIU, systemic
Protocol: After an overnight fast, Long-Evans rats (Charles River, Wilmington, Mass.), weighing 200-250 g, received single 60 mg/kg intraperitoneal injections of streptozotocin (Sigma, St. Louis, Mo.) in 10 mM citrate buffer (pH 4.5). Control nondiabetic animals received citrate buffer alone. Animals with blood glucose levels greater than 250 mg/dl 24 hours after the streptozotocin injections were considered diabetic. The rats were fed standard laboratory chow and allowed free access to water. Before each experiment, the diabetic state was reconfirmed to be 250 mg/dl or higher.
Asterisks indicate statistical significance.

Substance: aprotinin
- CNV leakage on fluorescein angiography compared to vehicle treated controls ([1]; day 7 post injury): substantially smaller
- CNV lesion size on fluorescein angiography ([1]; day 14 post injury): further reduced lesion size
- retinal distribution of intravenously injected 20 kDa FITC-conjugated dextran [2]: fluorescein staining more localized to the retinal vasculature
- retinal leukostasis (firmly adhering leukocytes per retina) [3]: 32.4±2.9 cells
- vascular leakage (normalized BRB leakage) [4]: comparable to that of normal animals
